Reference: patent US11744863B2, “Process for preparing a pooled human platelet lysate, pooled human platelet lysate and its use for treating neurological disorders” (priority 2017, dated 2023)

Assay: Body weight evolution of treated mice
Assay type: in vivo
Method: The mice enrolled were FVB-Tg(Sod1*G86R)M1Jwg/J mice from JAX laboratories. Animals were group-housed (10 per cage) in a temperature-controlled room (22±2° C.) with a 12/12-hour light/dark cycle. Food and water were feed ad-libitum. […] Breeding was realized (since 2013 may) in SOPF facility and genotyping is performed by qPCR (from tail biopsy). Animal are identified with earrings.
Mice were handled and weighted at the age of 60 days. Canula implantation in intra cerebro-ventricular (ICV) by stereotaxie start at this date and mice are acclimated during 1 week.
(Gurney and al, Neurology, 1998). Then they were evaluated, twice a week (i.e. body weight and neuroscore), from the age of 67 days to their death.
Two different treatments are performed from 75 days to death: • HT_pHPL prepared as described in example 1 and at 1 g/L, pH 7.4 versus vehicle. The dose of HT_pHPL administrated by intermittent ICV was 4 μL, three times a week at rate of 0.5 μL/min. […]

Nc1nc2ccc(OC(F)(F)F)cc2s1 [Riluzole]
day of body weight decrease (Tg mice FVB-Tg(Sod1*G86R)): 88 days | effect on body weight evolution (WT mice): no effect
